{
  "source": "patent US6800481B1",
  "about": "“Stable macroscopic membranes formed by self-assembly of amphiphilic peptides and uses therefor” (priority 1992, dated 2004)",
  "key": {"[1]": {"test_system": "striatum (a brain structure)", "experiment": "In vivo injection into the striatum, gliosis (nissl stain)", "conditions": "rats, 1 μl into the striatum", "description": "Three hundred g rats were anesthesized with equithesin (0.3 ml/100 g body weight). The skull was surgically exposed and small burr holes were stereotaxically drilled at AP=+1.5, ML=+/−3.0 relative to bregma. An injection cannula was placed at a depth of −4.5 in the striatum (a brain structure). Experimental rats received 1 μl of EAK16 or RAD16 injected into the striatum. Control rats received similar injections of ibotenic acid, a well characterized toxin, as a positive contorl for gliosis, the experimental rats also received 35 μl injection of EAK16 or RAD16 into the thigh muscle (n=2 for each group). The rate were allowed to recover, then sacrificed for tissue harvest."}, "[2]": {"experiment": "Testing of peptides for macroscopic membrane formation (phase-contrast microscope, Congo Red staining)", "type": "physicochemical", "excerpt": "The effect of length and sequence on membrane formation was examined using several peptides (Table 1 and Example 3). […] Very long peptides, e.g., of about 200 amino acids, may encounter problems due to insolubility and intramolecular interactions which destabilize membrane formation. […] The optimal lengths for membrane formation will probably vary with the amino acid composition.\nThe EAK12 and EAK16 tested for membrane formation were acetylated and aminylated at both N- and C-terminal ends. […] The peptides were initially dissolved in water (5 mg/ml) or in 23% acetonitrile (10 mg/ml). A volume of 5-10 microliters of the dissolved peptides were applied to the DMEM medium, PBS or water. The formation of the membrane was first observed under a phase-contrast microscope and then, by the naked eye after staining with Congo Red."}, "[3]": {"type": "physicochemical", "description": "Once formed, the macroscopic membranes are stable in a variety of aqueous solutions, including water, phosphate-buffered saline (PBS), tissue culture medium, serum, and also in ethanol, and can be transferred to and stored in any of these liquids. […] The membranes can be transferred from one solution to another using a solid support such as a spatula. They can be broken by cutting, tearing or shearing.\nThe stability of the membranes was also tested under a range of temperature, pH and chemical conditions. For these experiments, membranes were formed by adding 20 μl of a 0.5 mM stock solution of EAK16 to 0.5 ml of PBS, and transferred into water or other solutions at test conditions.\nThe membranes could be frozen and thawed, although care was required in handling the frozen membranes which were brittle. In boiling water, the membranes tended to be sheared by the mechanical agitation. […] (FIGS. 9A and 9B). […] Such strong thermal stability of the defined β-sheet structure of EAK16 is unusual for a small peptide. For example, these findings contrast with the α-helix-forming sixteen residue (Ala, Glu, Lys)-containing peptides studied previously (Marqusee and Baldwin, 1987).\nThe EAK16 membranes were also tested in water at pH 1.5, 3, 7 and 11 at room temperature for at least a week and at 95° C. for about 4 hours. The membranes were unaffected at these pH. […] It is possible that the complementary interactions between the Glu and Lys side-chains are strong even when the carboxyl groups of the Glu residues have been protonated at pH 1.5 and 3, due to their ability to form hydrogen bonds even when protonated.\nThe EAK16 membranes were further tested for resistance to chemical denaturation under the following conditions: 1% and 10% sodium dodecyl sulfate (SDS); 1, 2, 3, 4, 5, 6 and 7 M guanidine-HCl; and 1, 2, 3, 4, 5, 6, 7 and 8 M urea. […] The membranes were also tested at 95° C. for 4 hours in 10% SDS; 7 M guanidine-HCl; and at 8 M urea."}, "[4]": {"test_system": "NGF differentiated PC12 cells, retonic acid-differentiated human neuroblastoma and mouse cerebellum granule cells", "experiment": "Neurite outgrowth on biopolymers, several neuronal cell types", "type": "cell-based", "excerpt": "The invention further relates to the regeneration of nerves with filaments of the membranes of the present invention. Nerve regeneration can be promoted and directed by transplanting filaments of RAD16 along the correct path to their targets. This would be extremely useful for patients with severed peripheral nerves. Such a technology could be refined to help people with spinal cord injuries."}, "[5]": {"test_system": "PC12 cells", "experiment": "In vitro neurite outgrowth on peptide membranes", "type": "cell-based, rat", "design": "Neurite outgrowth, NGF treated, 14 days: key to the marks not given beside the values", "description": "The suitability of these materials for supporting in vitro neurite outgrowth was tested by treating biomaterial-attached PC12 cells with nerve growth factor (NGF). This treatment induces PC12 cells to differentiate into sympathetic neurons which can send out long processes called neurites. There was a marked difference in the neurite promoting properties of the two materials tested (EAK16 and RAD16).\nNerve growth factor differentiated PC12 cells have been used extensively in studies of neurite outgrowth. PC12 cells upregulate the number of calcium-dependent and -independent cell adhesion receptors in response to nerve growth factor. Cell attachment and neurite outgrowth from nerve growth factor differentiated PC12 cells was examined on membranes of RAD16 and EAK16 in order to determine whether membranes containing RGD-like sequences would preferentially support these cell activities. Neurite outgrowth on peptide membranes is of interest for potential applications of nerve repair.\nUntreated PC12 cells were introduced to peptide membranes of EAK16 and RAD16 suspended in 85% RMMP1, 10% heat inactivated horse serum, 5 fetal bovine serum. Half of the cells were treated with nerve growth factor (50 ng/ml, NGF) and were supplemented with NGF every 3-4 days for 14 days. […] The neurite outgrowth reached greater than 400 μm in length, approximately 15-20 times the cell body, following the contour of the matrices in a three dimensional network."}, "[6]": {"test_system": "3T3", "experiment": "Cell attachment to biopolymer sheets, normal or Ca++ and Mg++ free medium (Table 6)", "type": "cell-based, mouse", "design": "key: ++++: strong attachment; +++: moderate attachment; ++: weak attachment; +/−: little or no attachment", "conditions": "3T3, 30 min, Normal Ca^++ & Mg^++ serum-free + Cyclohex", "description": "(§1) Cells were pretreated in serum-free medium containing 30 μg/ml cyclohexamide for 2 hours before introduction to the peptide membranes. The cells used for the calcium and magnesium-free condition were pre-equilibrated in Ca^++ and Mg^++ free medium containing 5 mM EDTA for 15 minutes before introduction to the peptide membranes. Cells were allowed to attach to the peptide membranes for 30 minutes, 1 and 8 hours at 37° C. The attached cells were shaken for […] on a rotary rocker at 60 r.p.m., then scored under phase contrast microscopy."}, "[7]": {"test_system": "3T3 fibroblast cells", "experiment": "Cell attachment to biopolymer sheets, with serum or serum-free + cyclohexamide (Table 5)", "type": "cell-based, mouse", "design": "key: ++++: strong attachment; +++: moderate attachment; ++: weak attachment; +/−: little or no attachment", "description": "3T3 fibroblast cells were introduced to membranes of RAD16 and EAK16 in normal serum-containing medium or in serum-free medium containing 30 μg/ml cyclohexamide (cells used for this condition were pretreated in this medium for 2 hours before plating). Cells were allowed to attach to the membranes for 30 minutes, 1 and 8 hours at 37° C. The attached cells were shaken for 10 minutes on a rotary rocker at 60 r.p.m., then scored under phase contrast microscopy. The decrease in cells attached to the membrane in the serum-free condition reflects cell loss due to serum deprivation."}, "[8]": {"test_system": "PC12", "experiment": "Cell attachment to biopolymer sheets, normal or Ca++ and Mg++ free medium (Table 6)", "type": "cell-based, rat", "design": "key: ++++: strong attachment; +++: moderate attachment; ++: weak attachment; +/−: little or no attachment", "description": "as §1"}, "[9]": {"test_system": "PC12NGF", "experiment": "Cell attachment to biopolymer sheets, normal or Ca++ and Mg++ free medium (Table 6)", "type": "cell-based, rat", "design": "key: ++++: strong attachment; +++: moderate attachment; ++: weak attachment; +/−: little or no attachment", "description": "as §1"}, "[10]": {"conditions": "NGF-treated PC12 cells, 14 days"}},
  "note": "Entries after “also recorded” stand apart in the source; their conditions may differ.",
  "data": [
    {"molecule": "N[C@H](C(=O)O)c1cc(=O)[nH]o1", "note": "[ibotenic acid, reference compound]", "values": [
      {"measurement": "gliosis / gliotic scarring after brain injection", "setting": "[1]", "result": "robust gliotic scarring around the injection site"}
    ]},
    {"molecule": "H-AAAADADARARADAD-OH [RAD16]", "values": [
      {"measurement": "formation of macroscopic membranes", "setting": "[2]; identical conditions, in words", "result": "found to form macroscopic membranes"},
      {"measurement": "membranous structure in Water", "setting": "[2]; water", "result": "−"},
      {"measurement": "stability of membranes in water or PBS", "setting": "[3]", "result": "stable in water or PBS for at least a week"},
      {"measurement": "neurite outgrowth on biopolymers", "setting": "[4]", "result": "occurs on RAD16-based biopolymers"},
      {"measurement": "neurite outgrowth of NGF-treated PC12 cells, in words", "setting": "[5]; NGF-treated PC12 cells on membranes", "result": "robust neurite processes; also recorded: Robust neurite outgrowth"},
      {"measurement": "neurite outgrowth length", "setting": "[5]; [10]", "result": "greater than 400 μm"},
      {"measurement": "neurite outgrowth length relative to the cell body", "setting": "[5]; [10]", "result": "15-20 times the cell body"},
      {"measurement": "Neurite outgrowth, untreated, 14 days", "setting": "[5]; PC12 cells without NGF, 14 days", "result": "− (no neurite outgrowth)"},
      {"measurement": "Neurite outgrowth, NGF treated, 14 days", "setting": "[5]; PC12 cells, NGF 50 ng/ml, 14 days", "result": "++++"},
      {"measurement": "cell attachment", "setting": "[6]", "result": "++++"},
      {"measurement": "cell attachment", "setting": "[7]; 3T3, 30 min, medium with serum, no cyclohexamide", "result": "++++"},
      {"measurement": "cell attachment", "setting": "[7]; 3T3, 30 min, serum-free medium, + cyclohexamide", "result": "++++"},
      {"measurement": "cell attachment", "setting": "[7]; 3T3, 60 min, medium with serum, no cyclohexamide", "result": "++++"},
      {"measurement": "cell attachment", "setting": "[7]; 3T3, 60 min, serum-free medium, + cyclohexamide", "result": "++++"},
      {"measurement": "cell attachment", "setting": "[7]; 3T3, 8 hrs, medium with serum, no cyclohexamide", "result": "++++"},
      {"measurement": "cell attachment", "setting": "[7]; 3T3, 8 hrs, serum-free medium, + cyclohexamide", "result": "++"},
      {"measurement": "cell attachment", "setting": "[8]; PC12, 30 min, Ca^++ & Mg^++ free, EDTA serum-free + Cyclohex", "result": "++++"},
      {"measurement": "cell attachment", "setting": "[8]; PC12, 30 min, Normal Ca^++ & Mg^++ serum-free + Cyclohex", "result": "++++"},
      {"measurement": "cell attachment", "setting": "[8]; PC12, 60 min, Ca^++ & Mg^++ free, EDTA serum-free + Cyclohex", "result": "++++"},
      {"measurement": "cell attachment", "setting": "[8]; PC12, 60 min, Normal Ca^++ & Mg^++ serum-free + Cyclohex", "result": "++++"},
      {"measurement": "cell attachment", "setting": "[9]; 30 min, Ca^++ & Mg^++ free, EDTA serum-free + Cyclohex", "result": "++++"},
      {"measurement": "cell attachment", "setting": "[9]; 30 min, Normal Ca^++ & Mg^++ serum-free + Cyclohex", "result": "++++"},
      {"measurement": "cell attachment", "setting": "[9]; 60 min, Ca^++ & Mg^++ free, EDTA serum-free + Cyclohex", "result": "++++"},
      {"measurement": "cell attachment", "setting": "[9]; 60 min, Normal Ca^++ & Mg^++ serum-free + Cyclohex", "result": "++++"}
    ]}
  ]
}
